Like-named read-outs stand apart in the source and are kept apart here.
How the values were obtained:
[1] = human, cited from earlier work
[2] = Measurement of Rb (blood-to-plasma concentration ratio) in spiked human blood, LC-MS/MS; type: in vitro ADME; details: footnote a: Rb is our experimental data; for blood plasma ratio at 30 min, 5 µM: read-out: Rb_Human (blood-to-plasma concentration ratio); for Rb_Human: blood-to-plasma concentration ratio
Description: Heparinized blood was collected from three to seven healthy volunteers not medicated for at least seven days. […] The blood was spiked with the compounds (final concentration of 5 µM) and incubated at 37 °C for 30 min. Following incubation, the samples were centrifuged at 5000 rpm for 5 min to obtain plasma. Subsequently, the concentrations of the compounds in the plasma were determined by LC–MS/MS using the same method as described for the measurement of PPB. Rb was calculated according to Eq. (2).

[3] = cited from earlier work
plasma protein [4] = assay: Measurement of PPB by equilibrium dialysis in pooled human plasma (free fraction); details: for fp_Human: footnote b: fu is our experimental data; for fraction unbound at 5 h, 5 µM: human
Description: (§1) Pooled human plasma was obtained from heparinized blood from nine to ten healthy volunteers not medicated for at least seven days. The human blood collection and PPB experimental protocols were approved by the Ethical Review Committee of Japan Tobacco Inc, Central Pharmaceutical Research Institute. Informed consent was obtained from all subjects, and the PPB experiments were conducted in accordance with the Ethical Guidelines for Medical and Health Research Involving Human Subjects. Binding of compounds to plasma protein was evaluated by equilibrium dialysis utilizing a 96-well equilibrium dialysis unit and HTD96b dialysis membrane strips with a molecular cutoff of 12–14 kDa (HTDialysis, Gales Ferry, CT, USA). Plasma containing the compounds (final concentration of 5 µM) and buffer (Dulbecco’s phosphate-buffered saline; Thermo Fisher Scientific, Waltham, MA) were added into the donor and receiver cells, respectively. Following dialysis for 5 h at 37 °C, the concentrations of the compounds in the plasma and buffer were determined by liquid chromatography–tandem mass spectrometry (LC–MS/MS) (Acquity™ Ultra Performance LC I-Class and Xevo TQ-S; Waters, Milford, MA). The percentage of free fraction (fu) was calculated according to the following equation [17]:1 Freefraction(fu,%)=Concentrationofbuffer/Concentrationofplasma×100

[5] = human
[6] = human; median if multiple values were reported; ref numbers in Table S1; cited from earlier work
plasma protein [7] = assay: in vitro; details: human
Description: as §1

[8] = intravenous, median if multiple values were reported, ref numbers in Table S1
[9] = human, intravenous, median if multiple values were reported, ref numbers in Table S1
[10] = intravenous, median if multiple values reported, Reference of Table S1
[11] = human, intravenous, median if multiple values reported, Reference of Table S1

Structure (SMILES) | in vivo Vd_(L/kg)_Human [1, 8] | blood plasma ratio at 30 min, 5 µM ([2]; heparinized human whole blood) | in vivo CL_(L/hr/kg)_Human [3, 9] | fp_Human (plasma protein [4]; human plasma free fraction) | fraction unbound at 5 h, 5 µM (plasma protein [4]; pooled human plasma) | in vivo MRT_(hr)_Human [5] | in vivo Vd_(L/kg)_Human ([1]; in vivo, iv) | blood plasma ratio at 30 min, 5 µM ([2]; plasma) | in vivo CL_(L/hr/kg)_Human ([3]; in vivo, iv) | fraction unbound at 5 h, 5 µM (plasma protein [4]; plasma) | Rb_Human (blood-to-plasma concentration ratio) [6] | fraction unbound (plasma protein [7]) | in vivo Vd_(L/kg)_Human [1, 10] | Rb_Human [2] | in vivo CL_(L/hr/kg)_Human [3, 11] | fp_Human (plasma protein [4]; free fraction in human plasma)
CN(C)CCc1c[nH]c2ccc(CS(=O)(=O)N3CCCC3)cc12 [Almotriptan] | 2.200 L/kg | 1.15 | 0.534 L/h/kg | 0.625 | 0.625 | 4.120 h | – | – | – | – | – | – | – | – | – | –
CO/N=C(\C(=O)N[C@@H]1C(=O)N2C(C(=O)O)=C(CSc3nc(C)c(CC(=O)O)s3)CS[C@H]12)c1csc(N)n1 [Cefodizime] | 0.054 L/kg | 0.57 | 0.037 L/h/kg | 0.097 | 0.097 | 1.475 h | – | – | – | – | – | – | – | – | – | –
Cc1cc(O)c(C(=O)N[C@@H](C(=O)N[C@@H]2C(=O)N3C(C(=O)O)=C(CSc4nnnn4C)CS[C@H]23)c2ccc(O)cc2)cn1 [Cefpiramide] | 0.130 L/kg | 0.53 | 0.029 L/h/kg | 0.039 | 0.039 | 4.514 h | – | – | – | – | – | – | – | – | – | –
CO/N=C(\C(=O)N[C@@H]1C(=O)N2C(C(=O)O)=CCS[C@H]12)c1csc(N)n1 [Ceftizoxime] | 0.215 L/kg | 0.54 | 0.126 L/h/kg | 0.995 | 0.995 | 1.706 h | – | – | – | – | – | – | – | – | – | –
CN(C)CCCC1(c2ccc(F)cc2)OCc2cc(C#N)ccc21 (stereo not shown) [Citalopram] | 13.000 L/kg | 1.39 | 0.258 L/h/kg | 0.396 | 0.396 | 50.388 h | – | – | – | – | – | – | – | – | – | –
O=P1(N(CCCl)CCCl)NCCCO1 (stereo not shown) [Cyclophosphamide] | – | – | – | 0.928 | – | 10.833 h | 0.715 L/kg | 0.92 | 0.078 L/h/kg | 0.928 | – | – | – | – | – | –
O=C(O)Cc1ccccc1Nc1c(Cl)cccc1Cl [Diclofenac] | 0.220 L/kg | 0.6 | 0.210 L/h/kg | 0.00216 | 0.00216 | 1.048 h | – | – | – | – | – | – | – | – | – | –
CC(C)N(CCC(C(N)=O)(c1ccccc1)c1ccccn1)C(C)C (stereo not shown) [Disopyramide] | 0.650 L/kg | 0.81 | 0.099 L/h/kg | 0.204 | 0.204 | 12.037 h | – | – | – | – | – | – | – | – | – | –
NC(N)=Nc1nc(CSCCC(N)=NS(N)(=O)=O)cs1 [Famotidine] | 1.200 L/kg | 0.74 | 0.396 L/h/kg | 1.000 | 1 | 3.030 h | – | – | – | – | – | – | – | – | – | –
NCC1(CC(=O)O)CCCCC1 [Gabapentin] | – | – | 0.102 L/h/kg | 1.000 | – | 7.500 h | 0.765 L/kg | – | – | – | 1.10 | 1 | – | – | – | –
C[C@H]1NCc2cc(-c3ccc4c(=O)c(C(=O)O)cn(C5CC5)c4c3OC(F)F)ccc21 [Garenoxacin] | 1.000 L/kg | 0.72 | 0.074 L/h/kg | 0.236 | 0.236 | 13.550 h | – | – | – | – | – | – | – | – | – | –
COc1ccc2c(c1)c(CC(=O)O)c(C)n2C(=O)c1ccc(Cl)cc1 [Indomethacin] | 0.595 L/kg | 0.59 | 0.095 L/h/kg | 0.00361 | 0.00361 | 4.958 h | – | – | – | – | – | – | – | – | – | –
CC1CCCC(C)N1CCCC(O)(c1ccccc1)c1ccccn1 (stereo not shown) [Pirmenol] | – | – | – | – | – | 12.500 h | – | – | – | – | – | – | 1.350 L/kg | 0.86 | 0.108 L/h/kg | 0.339
CC(C)NCC(O)COc1cccc2ccccc12 (stereo not shown) [Propranolol] | – | – | – | – | – | 4.653 h | – | – | – | – | – | – | 3.350 L/kg | 1.08 | 0.720 L/h/kg | 0.098

Source: PMC8342319, “Predicting blood-to-plasma concentration ratios of drugs from chemical structures and volumes of distribution in humans” (Molecular Diversity, 2021)
